Test results taken from patent publication US11446287B2, “Compounds and methods for EP300 or CBP modulation and indications therefor” (Opna Immuno-Oncology SA, priority 2019, dated 2022).

What follows are molecules tested against T1, Recombinant human BRD4 containing dual bromodomains (BRD4-BD12 (1-477)) (Homo sapiens, UniProt O60885) (assay: BRD4 Alphascreen binding assay).
T1 construct: Recombinant human BRD4 containing dual bromodomains (BRD4-BD12 (1-477)); made in house; host or cells: E. coli BL21-CodonPlus (DE3), modified pET vector
Summary of the method: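 His-tagged human BRD4 tandem bromodomains (1-477, E. coli) incubated 1 h at room temperature with biotinylated tetra-acetylated H4 (1-21) peptide and compound in HEPES pH 7.5 buffer with 2 mM DTT. AlphaScreen signal read 30 min after adding beads (7.5 μg/ml); IC50 from four-parameter fit after normalization to controls.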

Question: Which IC50 does the source give for `Cc1noc(C)c1-c1cnc2c(c1)c(-c1ccc(C(N)=O)cc1)cn2C(c1ccccn1)C1CCCC1` (stereo not drawn) [P-0020, 4-(1-(cyclopentyl(pyridin-2-yl)methyl)-5-(3,5-dimethylisoxazol-4-yl)-1H-pyrrolo[2,3-b]pyridin-3-yl)benzamide] here?
Answer: 1 to 8 µM

Question: How did the IC50 turn out when `CNC(=O)c1ccc(-c2cn(C(c3ccccn3)C3CCCC3)c3ncc(-c4c(C)noc4C)cc23)cc1` (stereo not drawn) [P-0021, 4-(1-(cyclopentyl(pyridin-2-yl)methyl)-5-(3,5-dimethylisoxazol-4-yl)-1H-pyrrolo[2,3-b]pyridin-3-yl)-N-methylbenzamide] was run?
Answer: 1 to 8 µM

Question: With `Cc1noc(C)c1-c1cnc2c(c1)c(-c1ccc(C#N)cc1)cn2C(c1ccccn1)C1CCCC1` (stereo not drawn) [P-0022, 4-(1-(cyclopentyl(pyridin-2-yl)methyl)-5-(3,5-dimethylisoxazol-4-yl)-1H-pyrrolo[2,3-b]pyridin-3-yl)benzonitrile] as the molecule, how does the IC50 read?
Answer: 8 to 1000 µM

Question: `Cc1noc(C)c1-c1cnc2c(c1)c(-c1ccc3c(c1)CNC3=O)cn2C(c1ccccn1)C1CCCC1` (stereo not drawn) [P-0023, 5-(1-(cyclopentyl(pyridin-2-yl)methyl)-5-(3,5-dimethylisoxazol-4-yl)-1H-pyrrolo[2,3-b]pyridin-3-yl)isoindolin-1-one] was tested. Which IC50 did it give?
Answer: 1 to 8 µM

Question: Which IC50 does the source give for `Cc1noc(C)c1-c1cnc2c(c1)c(-c1ccc(-c3nn[nH]n3)cc1)cn2C(c1ccccn1)C1CCCC1` (stereo not drawn) [P-0024, 4-(3-(4-(2H-tetrazol-5-yl)phenyl)-1-(cyclopentyl(pyridin-2-yl)methyl)-1H-pyrrolo[2,3-b]pyridin-5-yl)-3,5-dimethylisoxazole] here?
Answer: 8 to 1000 µM

Question: Which IC50 does the source give for `Cc1noc(C)c1-c1cnc2c(c1)c(-c1ccc(C(=O)O)c(F)c1)cn2C(c1ccccn1)C1CCCC1` (stereo not drawn) [P-0025, 4-(1-(cyclopentyl(pyridin-2-yl)methyl)-5-(3,5-dimethylisoxazol-4-yl)-1H-pyrrolo[2,3-b]pyridin-3-yl)-2-fluorobenzoic acid] here?
Answer: 1 to 8 µM

Question: `Cc1noc(C)c1-c1cnc2c(c1)c(-c1ccc(C(=O)O)nc1)cn2C(c1ccccn1)C1CCCC1` (stereo not drawn) [P-0026, 5-(1-(cyclopentyl(pyridin-2-yl)methyl)-5-(3,5-dimethylisoxazol-4-yl)-1H-pyrrolo[2,3-b]pyridin-3-yl)picolinic acid] was tested. Which IC50 did it give?
Answer: 1 to 8 µM

Question: For `Cc1cc(-c2c(C(F)(F)F)n([C@@H](C)c3ccccn3)c3cc(-c4c(C)noc4C)cnc23)ccc1C(=O)O` [P-0243, (S)-4-(6-(3,5-dimethylisoxazol-4-yl)-1-(1-(pyridin-2-yl)ethyl)-2-(trifluoromethyl)-1H-pyrrolo[3,2-b]pyridin-3-yl)-2-methylbenzoic acid], which IC50 is on record?
Answer: 1 to 8 µM

Question: How did the IC50 turn out when `COc1cc(-c2c(C(F)(F)F)n([C@@H](C)c3ccccn3)c3cc(-c4c(C)noc4C)cnc23)ccc1C(=O)O` [P-0244, (S)-4-(6-(3,5-dimethylisoxazol-4-yl)-1-(1-(pyridin-2-yl)ethyl)-2-(trifluoromethyl)-1H-pyrrolo[3,2-b]pyridin-3-yl)-2-methoxybenzoic acid] was run?
Answer: 1 to 8 µM

Question: `Cc1noc(C)c1-c1cnc2c(-c3cccc(C(=O)O)c3F)c(C(F)(F)F)n([C@@H](C)c3ccccn3)c2c1` [P-0245, (S)-3-(6-(3,5-dimethylisoxazol-4-yl)-1-(1-(pyridin-2-yl)ethyl)-2-(trifluoromethyl)-1H-pyrrolo[3,2-b]pyridin-3-yl)-2-fluorobenzoic acid] was tested. Which IC50 did it give?
Answer: 8 to 1000 µM

Question: For `Cc1noc(C)c1-c1cnc2c(-c3cccc(C(=O)O)c3C)c(C(F)(F)F)n([C@@H](C)c3ccccn3)c2c1` [P-0246, (S)-3-(6-(3,5-dimethylisoxazol-4-yl)-1-(1-(pyridin-2-yl)ethyl)-2-(trifluoromethyl)-1H-pyrrolo[3,2-b]pyridin-3-yl)-2-methylbenzoic acid], which IC50 is on record?
Answer: 8 to 1000 µM

Question: For `Cc1noc(C)c1-c1cnc2c(-c3cccc(C(=O)O)c3Cl)c(C(F)(F)F)n([C@@H](C)c3ccccn3)c2c1` [P-0247, (S)-2-chloro-3-(6-(3,5-dimethylisoxazol-4-yl)-1-(1-(pyridin-2-yl)ethyl)-2-(trifluoromethyl)-1H-pyrrolo[3,2-b]pyridin-3-yl)benzoic acid], which IC50 is on record?
Answer: 8 to 1000 µM

Question: How did the IC50 turn out when `CCOC(=O)c1cc(-c2cn(-c3ccc(F)cc3F)c3ncc(-c4c(C)noc4C)cc23)c(OCC)cc1O` [P-0248, ethyl 5-(1-(2,4-difluorophenyl)-5-(3,5-dimethylisoxazol-4-yl)-1H-pyrrolo[2,3-b]pyridin-3-yl)-4-ethoxy-2-hydroxybenzoate] was run?
Answer: 8 to 1000 µM

Question: With `CCOc1cc(O)c(C(=O)O)cc1-c1cn(-c2ccc(F)cc2F)c2ncc(-c3c(C)noc3C)cc12` [P-0249, 5-(1-(2,4-difluorophenyl)-5-(3,5-dimethylisoxazol-4-yl)-1H-pyrrolo[2,3-b]pyridin-3-yl)-4-ethoxy-2-hydroxybenzoic acid] as the molecule, how does the IC50 read?
Answer: 8 to 1000 µM

Question: How did the IC50 turn out when `CCOc1cc(OC)c(C(=O)O)cc1-c1cn(-c2ccc(F)cc2F)c2ncc(-c3c(C)noc3C)cc12` [P-0250, 5-(1-(2,4-difluorophenyl)-5-(3,5-dimethylisoxazol-4-yl)-1H-pyrrolo[2,3-b]pyridin-3-yl)-4-ethoxy-2-methoxybenzoic acid] was run?
Answer: 8 to 1000 µM

Question: `Cc1noc(C)c1-c1cnc2c(c1)c(-c1ccc(C(=O)O)cc1OC(F)(F)F)cn2-c1cnccc1F` [P-0251, 4-(5-(3,5-dimethylisoxazol-4-yl)-1-(4-fluoropyridin-3-yl)-1H-pyrrolo[2,3-b]pyridin-3-yl)-3-(trifluoromethoxy)benzoic acid] was tested. Which IC50 did it give?
Answer: 8 to 1000 µM

Question: How did the IC50 turn out when `Cc1noc(C)c1-c1cnc2c(c1)c(-c1ccc(C(=O)O)cc1OC(F)(F)F)cn2-c1cnccc1O` [P-0252, 4-(5-(3,5-dimethylisoxazol-4-yl)-1-(4-hydroxypyridin-3-yl)-1H-pyrrolo[2,3-b]pyridin-3-yl)-3-(trifluoromethoxy)benzoic acid] was run?
Answer: 8 to 1000 µM

Question: `Cc1noc(C)c1-c1cnc2c(c1)c(-c1ccc(C(=O)O)cc1OC(F)(F)F)cn2-c1ccncc1Cl` [P-0253, 4-(1-(3-chloropyridin-4-yl)-5-(3,5-dimethylisoxazol-4-yl)-1H-pyrrolo[2,3-b]pyridin-3-yl)-3-(trifluoromethoxy)benzoic acid] was tested. Which IC50 did it give?
Answer: 8 to 1000 µM

Question: How did the IC50 turn out when `Cc1noc(C)c1-c1cnc2c(c1)c(-c1ccc(C(=O)O)cc1OC(F)(F)F)cn2-c1c(F)cccc1C#N` [P-0254, 4-(1-(2-cyano-6-fluorophenyl)-5-(3,5-dimethylisoxazol-4-yl)-1H-pyrrolo[2,3-b]pyridin-3-yl)-3-(trifluoromethoxy)benzoic acid] was run?
Answer: 1 to 8 µM

Question: `COc1cc(C(=O)O)cc(C)c1-c1cn(-c2ccccc2)c2ncc(-c3c(C)noc3C)cc12` [P-0255, 4-(5-(3,5-dimethylisoxazol-4-yl)-1-phenyl-1H-pyrrolo[2,3-b]pyridin-3-yl)-3-methoxy-5-methylbenzoic acid] was tested. Which IC50 did it give?
Answer: 1 to 8 µM

Question: How did the IC50 turn out when `Cc1noc(C)c1-c1cnc2c(-c3ccc(C(=O)O)cc3C#N)c(C(F)(F)F)n([C@@H](C)c3ccccn3)c2c1` [P-0256, (S)-3-cyano-4-(6-(3,5-dimethylisoxazol-4-yl)-1-(1-(pyridin-2-yl)ethyl)-2-(trifluoromethyl)-1H-pyrrolo[3,2-b]pyridin-3-yl)benzoic acid] was run?
Answer: 8 to 1000 µM

Question: Which IC50 does the source give for `Cc1noc(C)c1-c1cnc2c(-c3cc(C(=O)O)ccc3Cl)c(C(F)(F)F)n([C@@H](C)c3ccccn3)c2c1` [P-0257, (S)-4-chloro-3-(6-(3,5-dimethylisoxazol-4-yl)-1-(1-(pyridin-2-yl)ethyl)-2-(trifluoromethyl)-1H-pyrrolo[3,2-b]pyridin-3-yl)benzoic acid] here?
Answer: 8 to 1000 µM

Question: `CCOc1cc(C(=O)O)cc(OCC)c1-n1cc(-c2cnn(CS(C)(=O)=O)c2)c2ncc(-c3c(C)noc3C)cc21` [P-0258, 4-(6-(3,5-dimethylisoxazol-4-yl)-3-(1-((methylsulfonyl)methyl)-1H-pyrazol-4-yl)-1H-pyrrolo[3,2-b]pyridin-1-yl)-3,5-diethoxybenzoic acid] was tested. Which IC50 did it give?
Answer: 1 to 8 µM

Question: `CCOc1cc(C(=O)O)cc(OCC)c1-n1cc(-c2cn(C(C)C)nc2C)c2ncc(-c3c(C)noc3C)cc21` [P-0259, 4-(6-(3,5-dimethylisoxazol-4-yl)-3-(1-isopropyl-3-methyl-1H-pyrazol-4-yl)-1H-pyrrolo[3,2-b]pyridin-1-yl)-3,5-diethoxybenzoic acid] was tested. Which IC50 did it give?
Answer: 1 to 8 µM

Question: Which IC50 does the source give for `CCOc1cc(C(=O)O)cc(OCC)c1-n1cc(-c2cnn(CC(C)(C)O)c2)c2ncc(-c3c(C)noc3C)cc21` [P-0260, 4-(6-(3,5-dimethylisoxazol-4-yl)-3-(1-(2-hydroxy-2-methylpropyl)-1H-pyrazol-4-yl)-1H-pyrrolo[3,2-b]pyridin-1-yl)-3,5-diethoxybenzoic acid] here?
Answer: 1 to 8 µM

Question: With `CCOc1cc(C(=O)O)cc(OCC)c1-n1cc(-c2cnn(C(F)F)c2)c2ncc(-c3c(C)noc3C)cc21` [P-0261, 4-(3-(1-(difluoromethyl)-1H-pyrazol-4-yl)-6-(3,5-dimethylisoxazol-4-yl)-1H-pyrrolo[3,2-b]pyridin-1-yl)-3,5-diethoxybenzoic acid] as the molecule, how does the IC50 read?
Answer: 1 to 8 µM

Question: `CCOc1cc(C(=O)O)cc(OCC)c1-n1cc(-c2cnn(CCN(C)C)c2)c2ncc(-c3c(C)noc3C)cc21` [P-0262, 4-(3-(1-(2-(dimethylamino)ethyl)-1H-pyrazol-4-yl)-6-(3,5-dimethylisoxazol-4-yl)-1H-pyrrolo[3,2-b]pyridin-1-yl)-3,5-diethoxybenzoic acid] was tested. Which IC50 did it give?
Answer: 1 to 8 µM

Question: How did the IC50 turn out when `CCOc1cc(C(=O)O)cc(OCC)c1-n1cc(-c2cn(C)nc2C)c2ncc(-c3c(C)noc3C)cc21` [P-0263, 4-(3-(1,3-dimethyl-1H-pyrazol-4-yl)-6-(3,5-dimethylisoxazol-4-yl)-1H-pyrrolo[3,2-b]pyridin-1-yl)-3,5-diethoxybenzoic acid] was run?
Answer: 1 to 8 µM

Question: For `CCOc1cc(C(=O)O)cc(OCC)c1-n1cc(-c2cnn(CC3CC3)c2)c2ncc(-c3c(C)noc3C)cc21` [P-0264, 4-(3-(1-(cyclopropylmethyl)-1H-pyrazol-4-yl)-6-(3,5-dimethylisoxazol-4-yl)-1H-pyrrolo[3,2-b]pyridin-1-yl)-3,5-diethoxybenzoic acid], which IC50 is on record?
Answer: 1 to 8 µM

Question: Which IC50 does the source give for `CCOc1cc(C(=O)O)cc(OCC)c1-n1cc(-c2cnn(C3CC3)c2)c2ncc(-c3c(C)noc3C)cc21` [P-0265, 4-(3-(1-cyclopropyl-1H-pyrazol-4-yl)-6-(3,5-dimethylisoxazol-4-yl)-1H-pyrrolo[3,2-b]pyridin-1-yl)-3,5-diethoxybenzoic acid] here?
Answer: 1 to 8 µM
